Assay [1] deals with Voltage-gated inwardly rectifying potassium channel KCNH2 (Homo sapiens, UniProt Q12809). The class given is functional. The note with it: read-out: AC50.
The target of assay [2] is 5-hydroxytryptamine receptor 2B (Homo sapiens, UniProt P41595). The class given is functional, cell-based.
Assay [3] addresses T1, Cholecystokinin receptor type A (Homo sapiens, UniProt P32238).
T1 sequence (P32238 whole entry): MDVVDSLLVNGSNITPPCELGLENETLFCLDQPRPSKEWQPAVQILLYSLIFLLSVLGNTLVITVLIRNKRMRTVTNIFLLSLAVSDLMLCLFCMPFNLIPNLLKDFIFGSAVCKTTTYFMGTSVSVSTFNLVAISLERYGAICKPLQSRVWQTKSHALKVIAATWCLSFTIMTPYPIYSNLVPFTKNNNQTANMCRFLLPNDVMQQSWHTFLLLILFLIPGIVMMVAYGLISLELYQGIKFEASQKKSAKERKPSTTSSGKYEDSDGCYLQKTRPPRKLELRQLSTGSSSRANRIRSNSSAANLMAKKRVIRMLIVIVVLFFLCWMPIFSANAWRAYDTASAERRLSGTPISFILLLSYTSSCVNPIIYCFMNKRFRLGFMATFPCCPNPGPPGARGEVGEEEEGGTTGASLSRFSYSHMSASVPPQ

For assay [4], the target named is Delta-type opioid receptor (Homo sapiens, UniProt P41143).
Sequence of Delta-type opioid receptor (P41143 whole entry): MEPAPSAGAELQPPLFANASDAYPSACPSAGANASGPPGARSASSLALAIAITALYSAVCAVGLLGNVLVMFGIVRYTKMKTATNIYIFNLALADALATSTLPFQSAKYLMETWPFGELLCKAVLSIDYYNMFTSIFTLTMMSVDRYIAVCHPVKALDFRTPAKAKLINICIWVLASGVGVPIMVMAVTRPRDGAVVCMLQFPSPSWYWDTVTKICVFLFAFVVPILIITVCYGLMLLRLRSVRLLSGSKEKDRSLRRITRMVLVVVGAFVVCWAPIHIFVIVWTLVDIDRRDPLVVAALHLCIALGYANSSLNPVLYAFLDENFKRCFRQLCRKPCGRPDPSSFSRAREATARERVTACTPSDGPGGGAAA
Another assay addresses Adenosine receptor A2a (Homo sapiens, UniProt P29274).
Assay [5] concerns the target T2, 5-hydroxytryptamine receptor 3A (Homo sapiens, UniProt P46098).
T2 sequence (P46098 whole entry): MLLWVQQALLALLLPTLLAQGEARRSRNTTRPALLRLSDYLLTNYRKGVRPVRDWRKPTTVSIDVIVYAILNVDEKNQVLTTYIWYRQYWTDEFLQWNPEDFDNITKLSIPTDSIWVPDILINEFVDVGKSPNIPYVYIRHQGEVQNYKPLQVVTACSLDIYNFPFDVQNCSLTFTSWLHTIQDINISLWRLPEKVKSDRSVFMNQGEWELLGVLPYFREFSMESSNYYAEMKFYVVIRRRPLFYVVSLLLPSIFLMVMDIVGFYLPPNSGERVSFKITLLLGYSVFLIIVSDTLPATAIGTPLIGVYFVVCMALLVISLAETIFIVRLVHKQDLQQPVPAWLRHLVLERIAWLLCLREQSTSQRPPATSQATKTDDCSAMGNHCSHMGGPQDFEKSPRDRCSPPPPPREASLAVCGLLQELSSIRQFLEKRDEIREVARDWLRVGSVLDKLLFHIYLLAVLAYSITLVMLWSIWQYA
The class given is functional.

The target in assay [6] is T3, Amine oxidase [flavin-containing] A (Homo sapiens, UniProt P21397).
T3 sequence (P21397 whole entry): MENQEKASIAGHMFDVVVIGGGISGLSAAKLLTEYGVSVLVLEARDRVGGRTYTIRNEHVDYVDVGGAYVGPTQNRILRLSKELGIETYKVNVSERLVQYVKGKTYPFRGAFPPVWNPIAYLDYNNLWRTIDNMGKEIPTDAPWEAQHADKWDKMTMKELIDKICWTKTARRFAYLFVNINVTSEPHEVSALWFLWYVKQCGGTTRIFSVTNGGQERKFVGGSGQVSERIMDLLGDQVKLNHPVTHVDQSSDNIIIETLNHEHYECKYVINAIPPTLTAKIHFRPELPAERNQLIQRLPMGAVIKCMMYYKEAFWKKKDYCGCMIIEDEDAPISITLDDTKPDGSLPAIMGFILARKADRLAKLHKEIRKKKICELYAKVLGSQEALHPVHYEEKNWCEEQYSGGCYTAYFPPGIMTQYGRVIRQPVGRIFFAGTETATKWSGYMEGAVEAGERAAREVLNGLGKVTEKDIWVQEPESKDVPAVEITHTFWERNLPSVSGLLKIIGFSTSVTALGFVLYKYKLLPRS
The class given is functional.

Assay [7] has as its target cGMP-inhibited 3',5'-cyclic phosphodiesterase 3A (Homo sapiens, UniProt Q14432). The class given is functional.
In assay [8] the target is T4, Prostaglandin G/H synthase 1 (Rattus norvegicus, UniProt Q63921).
T4 sequence (Q63921 whole entry): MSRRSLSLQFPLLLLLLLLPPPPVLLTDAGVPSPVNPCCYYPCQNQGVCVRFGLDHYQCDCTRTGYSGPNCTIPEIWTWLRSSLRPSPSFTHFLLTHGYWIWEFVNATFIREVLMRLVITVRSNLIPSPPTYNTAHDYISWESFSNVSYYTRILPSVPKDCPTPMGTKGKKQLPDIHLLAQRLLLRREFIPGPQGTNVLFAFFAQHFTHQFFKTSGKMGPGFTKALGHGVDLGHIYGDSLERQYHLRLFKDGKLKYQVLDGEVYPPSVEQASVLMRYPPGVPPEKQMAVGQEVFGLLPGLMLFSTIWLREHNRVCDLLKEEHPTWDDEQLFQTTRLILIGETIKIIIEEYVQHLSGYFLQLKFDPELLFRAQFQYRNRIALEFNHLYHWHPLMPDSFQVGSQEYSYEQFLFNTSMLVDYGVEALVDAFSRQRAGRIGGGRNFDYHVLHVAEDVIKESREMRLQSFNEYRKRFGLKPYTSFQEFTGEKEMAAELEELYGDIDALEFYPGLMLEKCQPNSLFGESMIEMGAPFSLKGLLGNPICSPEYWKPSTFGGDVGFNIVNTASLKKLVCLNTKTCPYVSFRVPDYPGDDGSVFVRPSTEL
The class given is functional.

Assay [9] has as its target Gamma-aminobutyric acid receptor subunit alpha-1 (Rattus norvegicus, UniProt P62813). The class given is functional.
The target in assay [10] is T5, Alpha-2A adrenergic receptor (Homo sapiens, UniProt P08913).
T5 sequence (P08913 whole entry): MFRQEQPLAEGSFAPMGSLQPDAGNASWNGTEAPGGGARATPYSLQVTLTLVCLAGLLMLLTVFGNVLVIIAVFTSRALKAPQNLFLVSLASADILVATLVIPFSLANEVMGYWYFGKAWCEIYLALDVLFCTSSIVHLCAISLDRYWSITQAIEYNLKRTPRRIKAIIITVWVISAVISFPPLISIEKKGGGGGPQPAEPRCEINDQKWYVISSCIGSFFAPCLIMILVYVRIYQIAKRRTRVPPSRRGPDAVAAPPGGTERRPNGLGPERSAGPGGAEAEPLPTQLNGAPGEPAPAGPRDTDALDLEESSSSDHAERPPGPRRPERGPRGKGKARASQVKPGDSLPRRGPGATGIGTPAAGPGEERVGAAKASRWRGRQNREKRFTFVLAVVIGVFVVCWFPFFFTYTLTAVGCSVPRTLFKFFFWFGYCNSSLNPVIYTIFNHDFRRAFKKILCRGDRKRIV
The class given is functional, cell-based.

For assay [11], the target named is T5, Alpha-2A adrenergic receptor. The class given is functional, cell-based. The source holds these as a separate data set.

SMILES strings stand for the structures. A value given as a limit tells only on which side of the number the result lay.
Further: assay procedure not described here.

Sequence of 5-hydroxytryptamine receptor 2B (P41595 whole entry): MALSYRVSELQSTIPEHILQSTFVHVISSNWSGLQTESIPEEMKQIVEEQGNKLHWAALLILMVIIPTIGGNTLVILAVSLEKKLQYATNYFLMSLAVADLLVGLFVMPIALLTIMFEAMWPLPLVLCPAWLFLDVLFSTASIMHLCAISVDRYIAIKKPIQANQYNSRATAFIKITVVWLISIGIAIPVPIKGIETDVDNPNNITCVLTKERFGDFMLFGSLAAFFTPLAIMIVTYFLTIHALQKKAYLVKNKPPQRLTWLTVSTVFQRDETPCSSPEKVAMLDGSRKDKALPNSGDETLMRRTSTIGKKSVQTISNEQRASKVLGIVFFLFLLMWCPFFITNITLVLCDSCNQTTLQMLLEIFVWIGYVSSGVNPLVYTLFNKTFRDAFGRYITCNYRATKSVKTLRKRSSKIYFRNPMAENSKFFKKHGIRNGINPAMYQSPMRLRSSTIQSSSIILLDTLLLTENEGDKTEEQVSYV
Sequence of cGMP-inhibited 3',5'-cyclic phosphodiesterase 3A (Q14432 whole entry): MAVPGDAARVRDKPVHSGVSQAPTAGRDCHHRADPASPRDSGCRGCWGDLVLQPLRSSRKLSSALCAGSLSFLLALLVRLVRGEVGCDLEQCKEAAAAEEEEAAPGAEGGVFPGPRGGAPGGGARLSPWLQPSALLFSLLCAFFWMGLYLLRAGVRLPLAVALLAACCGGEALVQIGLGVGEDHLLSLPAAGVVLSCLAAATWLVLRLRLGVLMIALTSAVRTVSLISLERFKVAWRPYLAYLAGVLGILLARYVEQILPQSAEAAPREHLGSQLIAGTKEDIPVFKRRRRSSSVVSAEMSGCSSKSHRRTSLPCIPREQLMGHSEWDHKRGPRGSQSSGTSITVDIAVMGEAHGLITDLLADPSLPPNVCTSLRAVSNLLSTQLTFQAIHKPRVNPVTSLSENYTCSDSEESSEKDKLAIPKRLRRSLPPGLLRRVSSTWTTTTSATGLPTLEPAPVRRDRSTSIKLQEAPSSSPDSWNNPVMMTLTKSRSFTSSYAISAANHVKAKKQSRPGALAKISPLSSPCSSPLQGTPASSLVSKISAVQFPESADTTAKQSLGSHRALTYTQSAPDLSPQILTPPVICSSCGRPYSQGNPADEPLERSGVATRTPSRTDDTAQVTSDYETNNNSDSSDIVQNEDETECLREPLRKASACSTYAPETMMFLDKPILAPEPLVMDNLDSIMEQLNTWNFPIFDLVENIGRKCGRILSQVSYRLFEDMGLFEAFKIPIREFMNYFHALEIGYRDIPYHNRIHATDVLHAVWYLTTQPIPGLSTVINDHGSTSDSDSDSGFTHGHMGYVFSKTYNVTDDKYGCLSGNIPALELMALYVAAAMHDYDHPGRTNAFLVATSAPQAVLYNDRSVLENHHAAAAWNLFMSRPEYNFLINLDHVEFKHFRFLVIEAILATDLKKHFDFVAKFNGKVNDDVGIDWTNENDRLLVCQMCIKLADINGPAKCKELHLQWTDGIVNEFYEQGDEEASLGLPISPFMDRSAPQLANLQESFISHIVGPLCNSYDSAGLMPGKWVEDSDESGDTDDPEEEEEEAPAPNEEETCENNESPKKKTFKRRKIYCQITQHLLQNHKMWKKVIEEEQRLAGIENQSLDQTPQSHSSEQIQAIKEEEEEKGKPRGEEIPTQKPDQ
Sequence of Gamma-aminobutyric acid receptor subunit alpha-1 (P62813 whole entry): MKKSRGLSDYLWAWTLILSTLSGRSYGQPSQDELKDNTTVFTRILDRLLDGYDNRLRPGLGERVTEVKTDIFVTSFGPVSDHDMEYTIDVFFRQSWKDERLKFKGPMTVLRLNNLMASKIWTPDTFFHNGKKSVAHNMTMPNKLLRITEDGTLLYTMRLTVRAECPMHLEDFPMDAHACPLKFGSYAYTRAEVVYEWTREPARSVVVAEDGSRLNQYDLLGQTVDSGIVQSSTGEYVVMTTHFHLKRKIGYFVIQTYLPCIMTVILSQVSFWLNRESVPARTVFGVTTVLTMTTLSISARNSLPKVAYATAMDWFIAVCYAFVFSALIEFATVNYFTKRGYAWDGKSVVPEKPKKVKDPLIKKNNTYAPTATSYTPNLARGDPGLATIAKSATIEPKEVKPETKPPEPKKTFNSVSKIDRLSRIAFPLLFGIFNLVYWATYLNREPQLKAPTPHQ
Sequence of Adenosine receptor A2a (P29274 whole entry): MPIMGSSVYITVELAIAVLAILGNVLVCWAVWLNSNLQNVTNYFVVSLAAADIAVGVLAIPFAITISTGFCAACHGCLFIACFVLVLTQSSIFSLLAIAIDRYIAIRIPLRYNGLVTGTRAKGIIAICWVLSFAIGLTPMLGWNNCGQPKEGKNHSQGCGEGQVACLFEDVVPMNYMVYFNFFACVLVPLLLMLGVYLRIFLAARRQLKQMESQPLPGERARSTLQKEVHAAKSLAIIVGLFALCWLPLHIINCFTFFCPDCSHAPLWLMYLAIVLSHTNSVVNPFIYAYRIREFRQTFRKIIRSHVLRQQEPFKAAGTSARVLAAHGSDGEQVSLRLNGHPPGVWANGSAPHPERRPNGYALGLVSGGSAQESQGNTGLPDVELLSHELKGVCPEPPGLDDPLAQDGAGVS
Sequence of Voltage-gated inwardly rectifying potassium channel KCNH2 (Q12809 whole entry): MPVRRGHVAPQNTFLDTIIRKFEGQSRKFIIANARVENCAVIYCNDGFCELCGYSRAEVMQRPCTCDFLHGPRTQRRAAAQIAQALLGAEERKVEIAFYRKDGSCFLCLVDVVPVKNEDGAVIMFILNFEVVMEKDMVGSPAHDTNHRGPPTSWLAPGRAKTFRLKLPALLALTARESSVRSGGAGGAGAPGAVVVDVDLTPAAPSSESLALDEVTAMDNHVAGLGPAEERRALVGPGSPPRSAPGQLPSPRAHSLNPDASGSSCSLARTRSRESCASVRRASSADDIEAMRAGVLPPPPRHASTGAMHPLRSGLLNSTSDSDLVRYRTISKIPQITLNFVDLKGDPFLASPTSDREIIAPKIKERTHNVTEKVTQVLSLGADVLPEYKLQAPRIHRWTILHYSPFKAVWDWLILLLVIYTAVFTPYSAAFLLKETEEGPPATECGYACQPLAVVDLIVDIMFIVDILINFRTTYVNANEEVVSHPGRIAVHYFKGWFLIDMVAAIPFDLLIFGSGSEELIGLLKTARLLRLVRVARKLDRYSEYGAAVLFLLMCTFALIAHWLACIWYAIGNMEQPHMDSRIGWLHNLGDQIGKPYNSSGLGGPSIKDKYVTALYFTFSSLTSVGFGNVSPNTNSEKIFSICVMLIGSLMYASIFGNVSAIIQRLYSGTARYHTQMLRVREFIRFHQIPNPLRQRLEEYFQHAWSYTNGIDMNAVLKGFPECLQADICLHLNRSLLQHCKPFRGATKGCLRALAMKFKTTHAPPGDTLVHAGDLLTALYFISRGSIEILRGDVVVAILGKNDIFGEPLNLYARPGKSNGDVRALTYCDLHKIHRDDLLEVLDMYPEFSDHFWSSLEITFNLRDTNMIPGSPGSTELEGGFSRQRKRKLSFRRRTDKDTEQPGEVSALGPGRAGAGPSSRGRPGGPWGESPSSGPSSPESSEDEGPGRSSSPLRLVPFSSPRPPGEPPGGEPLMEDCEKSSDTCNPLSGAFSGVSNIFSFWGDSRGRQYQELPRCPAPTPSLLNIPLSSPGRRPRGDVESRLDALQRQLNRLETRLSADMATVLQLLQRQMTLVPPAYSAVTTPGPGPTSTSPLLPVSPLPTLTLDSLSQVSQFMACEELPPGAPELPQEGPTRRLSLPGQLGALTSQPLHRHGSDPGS

Usually AC50 stands for the concentration at which the activity in the assay is half-maximal. Regarding `CCC1(c2ccccc2)C(=O)NCNC1=O` [PRIMIDONE], the half-maximal activity concentration (AC50) in assay [1] was over 30 µM; in assay [2], over 10 µM; in assay [3], over 10 µM; in assay [4] it was over 30 µM; on Adenosine receptor A2a, over 10 µM; in assay [5], over 30 µM. Moreover, the AC50 in assay [6] was over 10 µM; in assay [7], over 30 µM; in assay [8], over 10 µM; in assay [9] it was over 10 µM; in assay [10], over 10 µM; in assay [11], over 10 µM.
`CCN(CCO)CCCC(C)Nc1ccnc2cc(Cl)ccc12` (stereo not given) [HYDROXYCHLOROQUINE]: the half-maximal activity concentration (AC50) in [1] is 7.4 µM; in [2], over 10 µM; in assay [3], over 10 µM; in [4], over 30 µM; at Adenosine receptor A2a, over 10 µM; in assay [5] it was over 30 µM. Besides, the AC50 was over 10 µM in assay [6]; over 30 µM in assay [7]; over 10 µM in assay [8]; over 10 µM in assay [9]; over 10 µM in [10]; over 10 µM in assay [11].
Consider `C[C@H](CCC(=O)O)[C@H]1CC[C@H]2[C@@H]3[C@H](O)C[C@@H]4C[C@H](O)CC[C@]4(C)[C@H]3CC[C@]12C` [CHENODIOL], for which the AC50 (in [1]; in assay [2]; in assay [3]; in assay [4]; at Adenosine receptor A2a; in assay [5]) was over 30 µM each time. Also, the AC50 in assay [6] is over 30 µM; in [7], over 30 µM; in [8], over 30 µM; in [9], over 30 µM; in assay [10] it was 3 µM; in assay [11] it was over 30 µM.
As for `O=C(c1ccccc1)c1ccc2n1CCC2C(=O)O` (stereo not given) [KETOROLAC], the AC50 is over 30 µM in assay [1]; over 30 µM in assay [2]; over 10 µM in assay [3]; over 30 µM in [4]; over 10 µM on Adenosine receptor A2a; over 30 µM in [5]. Moreover, the AC50 is over 30 µM in [6]; over 30 µM in assay [7]; 0.0239 µM in assay [8]; over 30 µM in assay [9]; over 30 µM in assay [10]; over 30 µM in assay [11].
`C[C@H](Cn1cnc2c(N)ncnc21)OCP(=O)(O)O` [TENOFOVIR ANHYDROUS]: the AC50 in assay [1] was over 30 µM; in assay [2], over 30 µM; in assay [3] it was over 30 µM; in [4], over 10 µM; on Adenosine receptor A2a, over 30 µM; in [5] it was over 30 µM. Besides, the AC50 in assay [6], in assay [7], in assay [8], in assay [9], in [10] and in assay [11] was over 30 µM in each case.
